Assay [1] concerns two cultured human colon carcinoma cell lines and Chinese hamster ovary (CHO K-I) cells. The note with it: cited from earlier work; for toxicity when used alone: deoxycoformycin .001 to 1 μM, 2′-deoxyadenosine 0 to 500 μM.
For the next assay, the system named is neuronal cell. The note with it: dose-dependent; cited from earlier work.
The subject of assay [2] is OVCAR3 ovarian cancer cells. As to the kind of experiment: MTT cell viability assay, OVCAR3. The note with it: for viability at 10 µM: Homo sapiens, OVCAR-3, 60 h, read-out: cell viability as a percentage of control. As for the experimental part:
For the experiments MCF7 breast cancer cells and OVCAR3 ovarian cancer cells (both obtained from the American Type Culture Collection (ATCC), Manassas, Va.) were cultured in RPMI 1640 media containing 10% fetal calf serum (Life Technologies, Gaithersburg, Md.). After 24 hours of culturing at 37° C. in 5% CO2, additional medium was added containing either adenosine (final concentration 10 μM), coformycin (final concentration 10 μM), or 10 μM each of adenosine and coformycin. Additional media alone was added to control cultures.
The cells were cultured in these chemotherapeutic media for an additional 60 hours, at which time the viability of the cells were determined using an MTT assay (Celltitre 98 Aqueous 1, Promega, Madison, Wis.).
The OVCAR3 ovarian cancer cell line was cultured as described in Example 1 for 24 hours and then treated with either 5 μM (final concentration) dipyridimole alone; 10 μM adenosine plus 10 μM coformycin alone; or the combination of these two treatments. In a control sample, culture media alone was added. The cultures were grown for an additional 60 hours and then analyzed for cell growth.
The same experiments were repeating using 5 μM (final concentration) 5′-amino-5′-deoxyadenosine alone; 5 μM adenosine plus 10 μM coformycin alone; or the combination of these two treatments.
The procedures described in Example 1 were repeated using the OVCAR 3 ovarian cancer cell line, and using as therapeutic agents 10 μM coformycin in combination with 10 μM of either adenosine, 2-chloroadenosine, 8-chloroadenosine, or 8-chloro-cAMP.
For orientation: Formazan colour is commonly taken as a measure of viable cells.

The next assay deals with MCF7 breast cancer cells. As to the kind of experiment: MTT cell viability assay, MCF7. The note with it: Homo sapiens, read-out: cell viability as a percentage of control. Type of assay: cell-based. How it is done: (§1) Additional media alone was added to control cultures.
In another assay the test system is mouse melanoma cells. The note with it: cited from earlier work.
The next assay concerns lymphoid cells. The note with it: cited from earlier work.
Another assay concerns fibroblasts. The note with it: cited from earlier work.
The subject of assay [3] is cell lines OVCAR 3, OVCAR 5, MCF7, and HT 29. As to the kind of experiment: Adenosine with CF or dCF, tumor cell toxicity assay (Example 4). The format is cell-based. The note with it: 5 μM adenosine with 5 μM CF or 5 μM dCF; 60 hours. As for the experimental part:
as §1
The procedures described in Example 1 were repeated using cell lines OVCAR 3, OVCAR 5, MCF7, and HT 29 and using 5 μM adenosine in combination with either 5 μM CF or 5 μM dCF as the therapeutic combination of agents.

Assay [4] addresses T1, adenosine deaminase (ADA) (Homo sapiens, UniProt P00813).
T1 sequence (P00813 1-363): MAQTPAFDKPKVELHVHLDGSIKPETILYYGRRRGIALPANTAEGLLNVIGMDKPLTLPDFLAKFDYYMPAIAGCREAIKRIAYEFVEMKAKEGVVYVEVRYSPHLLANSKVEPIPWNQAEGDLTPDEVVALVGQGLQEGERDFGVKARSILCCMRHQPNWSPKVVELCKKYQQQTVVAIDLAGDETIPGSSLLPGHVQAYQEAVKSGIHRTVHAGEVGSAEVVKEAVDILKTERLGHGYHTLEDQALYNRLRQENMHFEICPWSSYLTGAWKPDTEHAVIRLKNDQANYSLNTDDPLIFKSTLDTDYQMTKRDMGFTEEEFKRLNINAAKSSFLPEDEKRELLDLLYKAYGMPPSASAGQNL
The note with it: Cha et al. 1975; Agarwal et al. 1977; cited from earlier work.

Another assay deals with AMPDA. The note with it: CF versus dCF; cited from earlier work.

The source of these data is patent publication US6579857B1, “Combination cancer therapy comprising adenosine and deaminase enzyme inhibitors” (Evanston Northwestern Healthcare Research Institute, priority 1999, dated 2003).

SMILES strings stand for the structures. Like-named read-outs stand apart in the source and are kept apart here.

For the compound `Nc1ncnc2c1ncn2[C@H]1C[C@H](O)[C@@H](CO)O1` [2′-deoxyadenosine], the “toxicity when used alone” value in assay [1] was “Neither compound was reported to be toxic when used alone”. For the same compound, in assay [1] (in combination with deoxycoformycin), the “concentration required to approach full cell growth inhibition” value is 50 to 150 µM. Also, the “concentration of maximal neuronal cell toxicity” value in the assay on neuronal cell is 300 µM.
Take `NC[C@H]1O[C@@H](n2cnc3c(N)ncnc32)[C@H](O)[C@@H]1O` [5′-amino-5′-deoxyadenosine]: the “block of toxic effects of Ado/CF combination” value in [2] (OVCAR3, 5 μM 5′-amino-5′-deoxyadenosine + 5 μM adenosine + 10 μM coformycin, 60 hours) was “essentially completely block”. Besides, the “cell growth, agent alone” value in assay [2] (OVCAR3, 5 μM 5′-amino-5′-deoxyadenosine alone, 60 hours) was ~80 % of control.
With `OC[C@H]1O[C@@H](n2cnc3c2NC=NC[C@H]3O)C[C@@H]1O` [deoxycoformycin], in assay [1], the “toxicity when used alone” value is listed as “Neither compound was reported to be toxic when used alone”.
On to `Nc1ncnc2c1ncn2[C@@H]1O[C@H](CO)[C@@H](O)[C@H]1O` [adenosine], for which the viability (in general, the share of living cells, or the viability signal relative to a control) at 10 µM was more than 100% in the assay on MCF7 breast cancer cells (MCF7, 10 μM final concentration of each agent, 60 hours) and more than 100% in [2]. The “concentration giving 80% growth inhibition” value in the assay on mouse melanoma cells was 50 µM. The results for the “concentration required for similar (80%) growth inhibition” value with lymphoid cells and in the assay on fibroblasts were 5 µM and 400 µM, respectively.
As for `OC[C@H]1O[C@@H](n2cnc3c2N=CNC[C@H]3O)[C@H](O)[C@@H]1O` [coformycin], the viability at 10 µM in the assay on MCF7 breast cancer cells (MCF7, 60 h) was more than 100%; in assay [2], more than 100%. In assay [3], the “potentiation of adenosine toxicity” value is given as “consistently potentiated to toxicity of the adenosine to a greater extent than the deoxycoformycin”. For the same compound, the inhibition constant Ki (commonly the equilibrium dissociation constant of an inhibitor or competing ligand from its target) in assay [4] is 0.025 nM. In the assay with AMPDA, the “fold more potent inhibitor of AMPDA” value is listed as 50 fold.
On to `OCCN(CCO)c1nc(N2CCCCC2)c2nc(N(CCO)CCO)nc(N3CCCCC3)c2n1` [dipyridamole], for which, in assay [2] (OVCAR3, 5 μM dipyridimole + 10 μM adenosine + 10 μM coformycin, 60 hours), the “cell growth with protective agent added to Ado/CF” value is “approximating that of the untreated control”. Besides, the “cell growth as percentage of the control” value in [2] (OVCAR3, 5 μM dipyridimole alone or 10 μM adenosine plus 10 μM coformycin alone, 60 hours) is “comparable to the control”.
